Literature values, collected in patent US9920014B2, “Selective inhibition of bacterial topoisomerase I” (THE FLORIDA INTERNATIONAL BOARD OF TRUSTEES MODESTO A. …, priority 2013, dated 2018).

Target: E. coli DNA topoisomerase I (Escherichia coli, UniProt P06612)
Details: reported by Bansal et al. 2012; read-out: E. coli Topo I IC50 (literature value); cited from earlier work

Chain of E. coli DNA topoisomerase I (P06612 whole entry): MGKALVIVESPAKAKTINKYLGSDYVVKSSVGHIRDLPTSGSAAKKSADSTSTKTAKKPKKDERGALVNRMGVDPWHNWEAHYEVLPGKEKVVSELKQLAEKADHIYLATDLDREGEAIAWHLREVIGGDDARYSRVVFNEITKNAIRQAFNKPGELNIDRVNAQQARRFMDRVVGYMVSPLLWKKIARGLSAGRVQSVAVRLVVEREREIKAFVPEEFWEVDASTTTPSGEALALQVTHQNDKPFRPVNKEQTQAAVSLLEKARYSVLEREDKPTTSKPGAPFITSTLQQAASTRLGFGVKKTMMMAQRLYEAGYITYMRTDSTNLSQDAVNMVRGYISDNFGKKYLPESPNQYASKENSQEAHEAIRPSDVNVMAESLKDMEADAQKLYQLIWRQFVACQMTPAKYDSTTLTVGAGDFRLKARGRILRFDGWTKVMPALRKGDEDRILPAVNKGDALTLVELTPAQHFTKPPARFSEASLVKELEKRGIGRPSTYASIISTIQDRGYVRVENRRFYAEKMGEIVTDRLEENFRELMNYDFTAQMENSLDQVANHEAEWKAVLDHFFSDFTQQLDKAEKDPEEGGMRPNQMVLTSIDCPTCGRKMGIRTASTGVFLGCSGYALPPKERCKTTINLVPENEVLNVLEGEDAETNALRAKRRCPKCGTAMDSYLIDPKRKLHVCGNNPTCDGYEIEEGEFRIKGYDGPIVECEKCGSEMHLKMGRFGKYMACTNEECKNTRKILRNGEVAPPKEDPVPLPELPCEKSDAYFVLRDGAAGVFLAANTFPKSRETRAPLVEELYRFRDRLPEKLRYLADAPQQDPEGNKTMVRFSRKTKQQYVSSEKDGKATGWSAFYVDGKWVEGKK

For `COc1ccc(-c2nc3ccc(-c4nc5ccc(N6CCN(C)CC6)cc5[nH]4)cc3[nH]2)cc1OC` [DMA], the IC50 is given as 3.8 µM.
